The values below come from patent US11999727B2 (Tango Therapeutics, Inc., priority 2020, dated 2024).

Assay [1] deals with HAP1 MTAP-intact cell line. Nature of the assay: SDMA in-cell western assay, HAP1 MTAP-intact. It is filed as cell-based. To be noted: Homo sapiens, HAP1, SDMA in-cell western, HAP1 MTAP-intact; read-out: MTAP HAP1 intact IC50. Summed up:
(§1)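 Readout: in-cell western detection of SDMA. Cells: HAP1 expressing endogenous MTAP and an MTAP-null HAP1 counterpart. Output: IC50.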

Assay [2] has as its target T1, PRMT5 (Homo sapiens, UniProt O14744).
T1 construct: purchased Viva (custom protein)
The assay can be described thus: PRMT5 biochemical IC50 assay with SAM as cofactor. As to conditions: PRMT5, SAM as cofactor; read-out: SAM IC50.

The target in assay [3] is T1, PRMT5. The assay can be described thus: PRMT5 biochemical IC50 assay with no cofactor. To be noted: PRMT5, no cofactor. The text has this:
Table 1 indicates IC50 values (μM) against PRMT5 for exemplary compounds in the presence of SAM as cofactor, with no cofactor, and with MTA as cofactor, respectively (columns 4-6). […] Ki values can be calculated from the IC50 values as described in the Examples section. As detailed in the Examples section, for the assay performed in the presence of SAM, IC50=Ki×1.5 (Ki=IC50/1.5).

Assay [4] has as its system HAP1 MTAP-deleted cell line. The assay can be described thus: SDMA in-cell western assay, HAP1 MTAP-deleted. The format is cell-based. As to conditions: for IC50: Homo sapiens, HAP1, SDMA in-cell western, HAP1 MTAP-deleted; for MTAP intact/deleted ratio: IC50 ratio HAP1 MTAP-intact / HAP1 MTAP-deleted, SDMA in-cell western. In a few lines:
as §1

The test system of assay [5] is HAP1 MTAP-deleted cell line. The assay can be described thus: Viability assay, MTAP-deleted cell line. The format is cell-based. As to conditions: Homo sapiens, HAP1, viability assay, MTAP-deleted cell line; read-out: HAP1 MTAP deleted viability. An excerpt: Table 1 additionally indicates IC50 values in a viability assay for the MTAP-deleted cell line (column 10), indicating the effect of treatment with compound on cell survival.

Assay [6] has as its target T1, PRMT5. The assay can be described thus: PRMT5 biochemical IC50 assay with MTA as cofactor. To be noted: PRMT5, MTA as cofactor; read-out: MTA IC50.
Where [7] appears, read: read-out: No Cofactor/ rel IC50.
Where [8] appears, read: read-out: HAP 1 MTAP deleted IC50.
Where [9] appears, read: read-out: HAP1 MTAP deleted IC50.

T1 sequence (O14744 whole entry): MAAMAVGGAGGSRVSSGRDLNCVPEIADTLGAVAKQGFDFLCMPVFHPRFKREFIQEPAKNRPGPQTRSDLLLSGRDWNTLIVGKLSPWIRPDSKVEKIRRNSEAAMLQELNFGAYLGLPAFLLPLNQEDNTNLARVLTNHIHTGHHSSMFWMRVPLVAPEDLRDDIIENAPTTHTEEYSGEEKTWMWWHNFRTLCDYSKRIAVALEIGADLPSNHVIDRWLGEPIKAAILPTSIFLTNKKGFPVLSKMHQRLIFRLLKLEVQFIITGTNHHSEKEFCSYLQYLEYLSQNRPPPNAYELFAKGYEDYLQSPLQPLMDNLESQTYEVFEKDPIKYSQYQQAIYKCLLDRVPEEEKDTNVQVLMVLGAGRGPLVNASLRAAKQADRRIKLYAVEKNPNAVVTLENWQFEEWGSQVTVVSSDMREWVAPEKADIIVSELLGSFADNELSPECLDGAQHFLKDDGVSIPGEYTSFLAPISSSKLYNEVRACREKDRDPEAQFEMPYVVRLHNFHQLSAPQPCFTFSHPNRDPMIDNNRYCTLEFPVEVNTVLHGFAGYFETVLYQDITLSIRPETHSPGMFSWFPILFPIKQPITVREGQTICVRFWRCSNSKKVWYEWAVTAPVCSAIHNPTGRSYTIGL
T1 sequence (Q9BQA1 whole entry partner): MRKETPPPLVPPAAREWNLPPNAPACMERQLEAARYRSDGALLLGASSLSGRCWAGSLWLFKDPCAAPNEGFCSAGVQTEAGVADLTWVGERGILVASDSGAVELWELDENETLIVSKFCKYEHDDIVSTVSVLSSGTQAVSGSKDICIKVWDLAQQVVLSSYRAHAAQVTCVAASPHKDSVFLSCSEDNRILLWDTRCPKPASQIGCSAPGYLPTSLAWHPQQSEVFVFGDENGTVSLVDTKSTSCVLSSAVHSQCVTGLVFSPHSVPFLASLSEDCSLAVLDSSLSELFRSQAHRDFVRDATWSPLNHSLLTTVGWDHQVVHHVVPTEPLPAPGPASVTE

Turning to `COc1ncc(NC(=O)C(=O)N2CCCCC2c2ccccc2)cc1C(N)=O` (stereo not shown) [Compound 138, 2-methoxy-5-(2-oxo-2-(2-phenylpiperidin-1-yl)acetamido)nicotinamide], the IC50 in assay [1] was more than 1000 nM; on PRMT5 [2], 50 to 500 nM; on PRMT5 [3] (setting [7]), more than 500 nM; in assay [4] (setting [8]), 100 to 1000 nM; in assay [5] it was more than 10 µM; on PRMT5 [6] it was less than 50 nM. In assay [4], the “MTAP intact/deleted ratio” value was “A (an IC50 ratio greater than or equal to 10 fold)”.

On to `Cc1cc(NC(=O)C(=O)N2CCCCC2c2cccc3ocnc23)cnc1N` (stereo not shown) [Compound 140, N-(6-Amino-5-methyl-3-pyridyl)-2-[2-(1,3-benzoxazol-4-yl)-1-piperidyl]-2-oxo-acetamide], for which the IC50 in assay [1] was more than 1000 nM; on PRMT5 [2], more than 500 nM; at PRMT5 [3] (setting [7]), more than 500 nM; in assay [4] (setting [8]) it was 100 to 1000 nM; in assay [5], more than 10 µM; on PRMT5 [6], more than 500 nM. Besides, the “MTAP intact/deleted ratio” value in assay [4] is given as “A (an IC50 ratio greater than or equal to 10 fold)”.

Turning to `Cc1cc(NC(=O)C(=O)N2CCCCC2c2cccc3[nH]cnc23)cnc1N` (stereo not shown) [Compound 142, N-(6-Amino-5-methyl-3-pyridyl)-2-[2-(1H-benzimidazol-4-yl)-1-piperidyl]-2-oxo-acetamide], the IC50 is more than 1000 nM in assay [1]; 50 to 500 nM at PRMT5 [2]; more than 500 nM on PRMT5 [3] (setting [7]); more than 1000 nM in assay [4] (setting [8]); more than 10 µM in assay [5]; 50 to 500 nM on PRMT5 [6]. In addition, in assay [4], the “MTAP intact/deleted ratio” value was “B (an IC50 ratio greater than or equal to 3 fold but lower than 10 fold)”.

On to `CC1CCC2CCCCC2N1C(=O)C(=O)Nc1cncc(C(N)=O)c1` (stereo not shown) [Compound 144, 5-[2-(2-Methyl-decahydroquinolin-1-yl)-2-oxoacetamido]pyridine-3-carboxamide], for which the IC50 in assay [1] was more than 1000 nM; on PRMT5 [2], 50 to 500 nM; at PRMT5 [3] (setting [7]) it was 50 to 500 nM; in assay [4] (setting [8]), 100 to 1000 nM; in assay [5], more than 10 µM; at PRMT5 [6], less than 50 nM. In addition, in assay [4], the “MTAP intact/deleted ratio” value is listed as “A (an IC50 ratio greater than or equal to 10 fold)”.

For the molecule `O=Cc1cncc(NC(=O)C(=O)N2CCCCC2c2ccccc2)c1` (stereo not shown) [Compound 147, N-(5-formylpyridin-3-yl)-2-oxo-2-(2-phenylpiperidin-1-yl)acetamide], the IC50 is more than 1000 nM in assay [1]; more than 500 nM on PRMT5 [2]; more than 500 nM on PRMT5 [3] (setting [7]); more than 1000 nM in assay [4] (setting [8]); more than 10 µM in assay [5]; 50 to 500 nM at PRMT5 [6]. Also, in assay [4], the “MTAP intact/deleted ratio” value is on record as “C (an IC50 ratio of less than 3 fold)”.

On to `NC(=O)c1cncc(NC(=O)C(=O)N2CCC3(CC2)OCC2CC23)c1` (stereo not shown) [Compound 149, 5-(2-{3-Oxaspiro[bicyclo[3.1.0]hexane-2,4′-piperidine]-1′-yl}-2-oxoacetamido)pyridine-3-carboxamide], for which the IC50 is more than 1000 nM in assay [1]; 50 to 500 nM at PRMT5 [2]; more than 500 nM on PRMT5 [3] (setting [7]); more than 1000 nM in assay [4] (setting [8]); more than 10 µM in assay [5]; 50 to 500 nM on PRMT5 [6]. Also, the “MTAP intact/deleted ratio” value in assay [4] is “C (an IC50 ratio of less than 3 fold)”.

Turning to `Cc1cnc(N)c(NC(=O)C(=O)N2CCCCC2c2ccccc2)c1` (stereo not shown) [Compound 160, N-(2-amino-5-methylpyridin-3-yl)-2-oxo-2-(2-phenylpiperidin-1-yl)acetamide], the IC50 in assay [1] is more than 1000 nM; on PRMT5 [2] it was more than 500 nM; at PRMT5 [3] (setting [7]), more than 500 nM; in assay [4] (setting [8]) it was more than 1000 nM; in assay [5] it was more than 10 µM; on PRMT5 [6], more than 500 nM. In addition, the “MTAP intact/deleted ratio” value in assay [4] was “C (an IC50 ratio of less than 3 fold)”.

For `NC(=O)c1cncc(NC(=O)C(=O)N2CCCC3(CCSCC3)C2)c1` [Compound 166, 5-(2-Oxo-2-{9-thia-2-azaspiro[5.5]undecan-2-yl}acetamido)pyridine-3-carboxamide], the IC50 in assay [1] is more than 1000 nM; at PRMT5 [2], more than 500 nM; on PRMT5 [3] (setting [7]), more than 500 nM; in assay [4] (setting [8]), more than 1000 nM; in assay [5], more than 10 µM; at PRMT5 [6] it was 50 to 500 nM. Also, the “MTAP intact/deleted ratio” value in assay [4] is given as “C (an IC50 ratio of less than 3 fold)”.

`NC(=O)c1cncc(NC(=O)C(=O)N2CCCCC2C2CCC(F)(F)CC2)c1` (stereo not shown) [Compound 170, 5-[[2-[2-(4,4-difluorocyclohexyl)-1-piperidyl]-2-oxo-acetyl]amino]pyridine-3-carboxamide]: the IC50 in assay [1] is more than 1000 nM; on PRMT5 [2], 50 to 500 nM; at PRMT5 [3] (setting [7]) it was more than 500 nM; in assay [4] (setting [8]), 100 to 1000 nM; in assay [5] it was more than 10 µM; on PRMT5 [6] it was 50 to 500 nM. The “MTAP intact/deleted ratio” value in assay [4] is reported as “A (an IC50 ratio greater than or equal to 10 fold)”.

Consider `Cc1cc(NC(=O)C(=O)N2CCCCC2C2CCC2)cnc1N` (stereo not shown) [Compound 182, N-(6-amino-5-methyl-3-pyridyl)-2-(2-cyclobutyl-1-piperidyl)-2-oxo-acetamide], for which the IC50 in assay [1] is more than 1000 nM; at PRMT5 [2] it was 50 to 500 nM; on PRMT5 [3] (read-out: No Cofactor/rel IC50), 50 to 500 nM; in assay [4] (setting [9]), 100 to 1000 nM; in assay [5], more than 10 µM; at PRMT5 [6], less than 50 nM. In addition, the MTAP intact/deleted ratio entry in assay [4] was “A (an IC50 ratio greater than or equal to 10 fold)”.

For `CC1CC(C)C(c2ccccc2)N(C(=O)C(=O)Nc2cncc(C(N)=O)c2)C1` (stereo not shown) [Compound 183, 5-(2-(3,5-dimethyl-2-phenylpiperidin-1-yl)-2-oxoacetamido)nicotinamide], the IC50 in assay [1] is more than 1000 nM; at PRMT5 [2] it was more than 500 nM; at PRMT5 [3] (read-out: No Cofactor/rel IC50), more than 500 nM; in assay [4] (setting [9]) it was more than 1000 nM; in assay [5] it was more than 10 µM; on PRMT5 [6] it was more than 500 nM. Further, in assay [4], the MTAP intact/deleted ratio result is on record as “C (an IC50 ratio of less than 3 fold)”.

Take `Cc1cncc(NC(=O)C(=O)N2CCCCC2c2ccccc2)c1N` (stereo not shown) [Compound 184, N-(4-amino-5-methylpyridin-3-yl)-2-oxo-2-(2-phenylpiperidin-1-yl)acetamide]: the IC50 in assay [1] is more than 1000 nM; on PRMT5 [2], more than 500 nM; on PRMT5 [3] (read-out: No Cofactor/rel IC50) it was more than 500 nM; in assay [4] (setting [9]), more than 1000 nM; in assay [5] it was more than 10 µM; on PRMT5 [6], 50 to 500 nM. Further, in assay [4], the MTAP intact/deleted ratio result is given as “C (an IC50 ratio of less than 3 fold)”.

Consider `Cc1cc(NC(=O)C(=O)N2CCCCC2C2CCC(F)(F)CC2)cnc1N` (stereo not shown) [Compound 186, N-(6-amino-5-methyl-3-pyridyl)-2-[2-(4,4-difluorocyclohexyl)-1-piperidyl]-2-oxo-acetamide], for which the IC50 in assay [1] is more than 1000 nM; at PRMT5 [2], 50 to 500 nM; at PRMT5 [3] (read-out: No Cofactor/rel IC50), 50 to 500 nM; in assay [4] (setting [9]) it was 100 to 1000 nM; in assay [5] it was more than 10 µM; on PRMT5 [6], 50 to 500 nM. The MTAP intact/deleted ratio result in assay [4] is on record as “A (an IC50 ratio greater than or equal to 10 fold)”.

With `NC(=O)c1cncc(NC(=O)C(=O)N2CCC3(CCOCC3)CC2)c1` [Compound 191, 5-[[2-(3-Oxa-9-azaspiro[5.5]undecan-9-yl)-2-oxo-acetyl]amino]pyridine-3-carboxamide], the IC50 was more than 1000 nM in assay [1]; more than 500 nM on PRMT5 [2]; more than 500 nM at PRMT5 [3] (read-out: No Cofactor/rel IC50); more than 1000 nM in assay [4] (setting [9]); more than 10 µM in assay [5]; 50 to 500 nM at PRMT5 [6]. The MTAP intact/deleted ratio entry in assay [4] is listed as “C (an IC50 ratio of less than 3 fold)”.

In the case of `NC(=O)c1cncc(NC(=O)C(=O)N2CCC3(CC2)CCS(=O)(=O)CC3)c1` [Compound 195, 5-(2-(3,3-Dioxido-3-thia-9-azaspiro[5.5]undecan-9-yl)-2-oxoacetamido)nicotinamide], the IC50 is more than 1000 nM in assay [1]; more than 500 nM at PRMT5 [2]; more than 500 nM on PRMT5 [3] (read-out: No Cofactor/rel IC50); more than 1000 nM in assay [4] (setting [9]); more than 10 µM in assay [5]; 50 to 500 nM on PRMT5 [6]. For the same molecule, in assay [4], the MTAP intact/deleted ratio entry is given as “C (an IC50 ratio of less than 3 fold)”.

For the molecule `NC(=O)c1cncc(NC(=O)C(=O)N2CCC3(CCCCC3)CC2)c1` [Compound 203, 5-[[2-(3-Azaspiro[5.5]undecan-3-yl)-2-oxo-acetyl]amino]pyridine-3-carboxamide], the IC50 in assay [1] was more than 1000 nM; at PRMT5 [2] it was 50 to 500 nM; on PRMT5 [3] (read-out: No Cofactor/rel IC50) it was more than 500 nM; in assay [4] (setting [9]), 100 to 1000 nM; in assay [5], more than 10 µM; at PRMT5 [6] it was less than 50 nM. In addition, the MTAP intact/deleted ratio result in assay [4] is “A (an IC50 ratio greater than or equal to 10 fold)”.
